From patent US10383880B2 (Reset Therapeutics, Inc., priority 2012, dated 2019) come the findings set out here.

One assay relates to Per2-dLuc U2OS reporter cells. The assay can be described thus: Per2 assay for evaluating the potency of test compounds (high-throughput circadian assay). As to conditions: Homo sapiens, U2OS, stable U2OS reporter cells harboring Per2-dLuc; luminescence monitored over 4-5 days at 35° C. The assay is classed as cell-based. In outline: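 After 24 h culture, U2OS cells carrying Per2-dLuc were serum-shock synchronized into explant medium with 1.0 mM luciferin (10 mM HEPES pH 7.0) and compound in 0.5% DMSO. Luminescence was recorded over 4–5 days at 35 °C. Circadian period, amplitude and phase were derived, and EC50 calculated.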
What is called EC50 is the concentration at which the effect is half-maximal. Low readings indicate a more potent agent, high ones a less potent agent. The compound `CS(=O)(=O)N(CC(O)Cn1c2ccccc2c2ccccc21)C1CCC1` (stereo not drawn) [Compound 57, N-(3-(9H-Carbazol-9-yl)-2-hydroxypropyl)-N-cyclobutylmethanesulfonamide] showed an EC50 of 35 nM.

The compound `CC(O)(CN1CCCN(C2CCCC2)S1(=O)=O)Cn1c2ccc(F)cc2c2cc(F)ccc21` (stereo not drawn) [Compound 221, 2-(3-(3,6-Difluoro-9H-carbazol-9-yl)-2-hydroxy-2-methylpropyl)-6-cyclopentyl-1,2,6-thiadiazinane-1,1-dioxide] came in with a 50% effective concentration (EC50) of 5520 nM. `CS(=O)(=O)N(CC(O)Cn1c2ccccc2c2ccccc21)C1CCCCC1` (stereo not drawn) [Compound 71, N-(3-(9H-Carbazol-9-yl)-2-hydroxypropyl)-N-cyclohexylmethanesulfonamide] returned a half-maximal effective concentration (EC50) of 3300 nM.

Regarding `O=S(=O)(CC(F)(F)F)N(Cc1ccco1)CC(O)Cn1c2ccccc2c2ccccc21` (stereo not drawn) [Compound 7, N-(3-(9H-Carbazol-9-yl)-2-hydroxypropyl)-2,2,2-trifluoro-N-(furan-2-ylmethyl)ethanesulfonamide], the EC50 is 2100 nM.

On to `O=S1(=O)CCCN1CC(O)Cn1c2cccc(F)c2c2c(F)cccc21` (stereo not drawn) [Compound 106, N-(3-(4,5-Difluoro-9H-carbazol-9-yl)-2-hydroxypropyl)-isothiazolidine-1,1-dioxide], for which the 50% effective concentration (EC50) came to 8600 nM.

`CN(CC(O)Cn1c2ccc(F)cc2c2ccc(F)cc21)S(C)(=O)=O` (stereo not drawn) [Compound 103, N-(3-(2,6-Difluoro-9H-carbazol-9-yl)-2-hydroxypropyl)-N-methylmethanesulfonamide] gave an EC50 of 2210 nM. As for `CC(C)N(CC(O)Cn1c2ccc(F)cc2c2ccc(F)cc21)S(C)(=O)=O` (stereo not drawn) [Compound 165, N-(3-(2,6-Difluoro-9H-carbazol-9-yl)-2-hydroxypropyl)-N-isopropylmethanesulfonamide], the EC50 came out at 95 nM. The compound `O=S1(=O)NCCCN1CC(O)Cn1c2ccccc2c2ccccc21` (stereo not drawn) [Compound 123, 2-(3-(9H-Carbazol-9-yl)-2-hydroxypropyl)-1,2,6-thiadiazinane-1,1-dioxide] registered an EC50 of 33 nM. For the compound `CN1CCCN(CC(O)Cn2c3ccccc3c3ccccc32)S1(=O)=O` (stereo not drawn) [Compound 124, 2-(3-(9H-Carbazol-9-yl)-2-hydroxypropyl)-6-methyl-1,2,6-thiadiazinane-1,1-dioxide], the EC50 came to 154 nM. Same read-out and setting: then `O=S(=O)(CC1CCCCO1)N(Cc1ccco1)CC(O)Cn1c2ccccc2c2ccccc21` (stereo not drawn) [Compound 18, N-(3-(9H-Carbazol-9-yl)-2-hydroxypropyl)-N-(furan-2-ylmethyl)-1-(tetrahydro-2H-pyran-2-yl)methanesulfonamide], with 3760 nM; and `CC1(N(CC(O)Cn2c3ccccc3c3ccccc32)S(C)(=O)=O)COC1` (stereo not drawn) [Compound 144, N-(3-(9H-Carbazol-9-yl)-2-hydroxypropyl)-N-(3-methyloxetan-3-yl)methanesulfonamide], with 2160 nM; and `CC1(N(CC(O)Cn2c3ccc(F)cc3c3cc(F)ccc32)S(C)(=O)=O)CCCC1` (stereo not drawn) [Compound 196, N-(3-(3,6-Difluoro-9H-carbazol-9-yl)-2-hydroxypropyl)-N-(1-methylcyclopentyl)methanesulfonamide], with 149 nM.

Compound `O=S1(=O)NCCN1CC(O)Cn1c2ccc(F)cc2c2cc(F)ccc21` (stereo not drawn) [Compound 175] yielded a half-maximal effective concentration (EC50) of 35 nM. The same measure, in the same setting: then `CC(O)(CN1CCN(C2CCCC2)S1(=O)=O)Cn1c2ccc(F)cc2c2cc(F)ccc21` (stereo not drawn) [Compound 232], with 2580 nM; and `CC1CCCC1N(CC(C)(O)Cn1c2ccc(F)cc2c2cc(F)ccc21)S(C)(=O)=O` (stereo not drawn) [Compound 192, N-(3-(3,6-Difluoro-9H-carbazol-9-yl)-2-hydroxy-2-methylpropyl)-N-(2-methylcyclopentyl)methanesulfonamide], with 686 nM; and `O=S1(=O)N(CC(O)Cn2c3ccc(F)cc3c3cc(F)ccc32)CCCN1C1CCCC1` (stereo not drawn) [Compound 220, 2-(3-(3,6-Difluoro-9H-carbazol-9-yl)-2-hydroxypropyl)-6-cyclopentyl-1,2,6-thiadiazinane-1,1-dioxide], with 1660 nM. Same read-out and setting: then `COCc1ccc(N(CC(O)Cn2c3ccc(F)cc3c3cc(F)ccc32)S(C)(=O)=O)cc1` (stereo not drawn) [Compound 209, N-(3-(3,6-Difluoro-9H-carbazol-9-yl)-2-hydroxypropyl)-N-(4-(methoxymethyl)phenyl)methanesulfonamide], with 4810 nM; and `CS(=O)(=O)N(Cc1cccc(F)c1)CC(O)Cn1c2ccccc2c2ccccc21` (stereo not drawn) [Compound 67, N-(3-(9H-Carbazol-9-yl)-2-hydroxypropyl)-N-(3-fluorobenzyl)methanesulfonamide], with 3140 nM.

Consider `CS(=O)(=O)N(CC(O)Cn1c2ccc(F)cc2c2cc(F)ccc21)c1ccc(-c2c[nH]cn2)cc1` (stereo not drawn) [Compound 204, N-(4-(1H-Imidazol-4-yl)phenyl)-N-(3-(3,6-difluoro-9H-carbazol-9-yl)-2-hydroxypropyl)methanesulfonamide], for which the EC50 was found to be 2550 nM. On the same count and under the same terms, then `CS(=O)(=O)N(CC(O)Cn1c2ccc(F)cc2c2cc(F)ccc21)c1ccccc1` (stereo not drawn) [Compound 199, N-(3-(3,6-Difluoro-9H-carbazol-9-yl)-2-hydroxypropyl)-N-phenylmethanesulfonamide], with 544 nM. Still for that read-out and setting: then `CC(O)(CN(C1(C)CC1)S(C)(=O)=O)Cn1c2ccc(F)cc2c2cc(F)ccc21` (stereo not drawn) [Compound 189, N-(3-(3,6-Difluoro-9H-carbazol-9-yl)-2-hydroxy-2-methylpropyl)-N-(1-methylcyclopropyl)methanesulfonamide], with 1290 nM; and `CS(=O)(=O)N(CC(O)Cn1c2ccccc2c2ccccc21)CC1CC2CCC1C2` (stereo not drawn) [Compound 75, N-(3-(9H-Carbazol-9-yl)-2-hydroxypropyl)-N-(bicyclo[2.2.1]heptan-2-ylmethyl)methanesulfonamide], with 842 nM. On the same count and under the same terms, then `O=S1(=O)CCCN1C[C@H](O)Cn1c2ccccc2c2ccccc21` [Compound 40, (R)-N-(3-(9H-Carbazol-9-yl)-2-hydroxypropyl)isothiazolidine 1,1-dioxide], with 179 nM; and `O=S1(=O)NCCCN1CC(O)Cn1c2ccc(F)cc2c2cc(F)ccc21` (stereo not drawn) [Compound 171, 2-(3-(3,6-Difluoro-9H-carbazol-9-yl)-2-hydroxypropyl)-1,2,6-thiadiazinane-1,1-dioxide], with 25 nM. Compound `CS(=O)(=O)N1CCCC1C(O)Cn1c2ccccc2c2ccccc21` (stereo not drawn) [Compound 241, 2-(9H-Carbazol-9-yl)-1-(1-(methyl-sulfonyl)-pyrrolidin-2-yl)ethanol] returned an EC50 of 488 nM.

As to `CS(=O)(=O)N(CC(O)Cn1c2ccc(F)cc2c2cc(F)ccc21)c1ccc(OC(F)F)cc1` (stereo not drawn) [Compound 206, N-(3-(3,6-Difluoro-9H-carbazol-9-yl)-2-hydroxypropyl)-N-(4-(difluoromethoxy)phenyl)methanesulfonamide], a half-maximal response (EC50) required 2850 nM.

In turn, `O=S1(=O)Cc2ccccc2CN1CC(O)Cn1c2ccccc2c2ccccc21` (stereo not drawn) [Compound 35, N-(3-(9H-Carbazol-9-yl)-2-hydroxypropyl)-3,4-dihydro-1H-benzo[d][1,2]thiazine 2,2-dioxide] showed a half-maximal effective concentration (EC50) of 1500 nM.

`CCOc1ccc(N(CC(O)Cn2c3ccc(F)cc3c3cc(F)ccc32)S(C)(=O)=O)cc1` (stereo not drawn) [Compound 202, N-(3-(3,6-Difluoro-9H-carbazol-9-yl)-2-hydroxypropyl)-N-(4-ethoxyphenyl)methanesulfonamide]: it took 2100 nM to reach a half-maximal effect (EC50). Still for that read-out and setting: then `CC(C)S(=O)(=O)N(Cc1ccco1)CC(O)Cn1c2ccccc2c2ccccc21` (stereo not drawn) [Compound 82, N-(3-(9H-Carbazol-9-yl)-2-hydroxypropyl)-N-(furan-2-ylmethyl)propane-2-sulfonamide], with 158 nM; and `CC(O)(CN1CCC(C)(C)S1(=O)=O)Cn1c2ccc(F)cc2c2cc(F)ccc21` (stereo not drawn) [Compound 180, 2-(3-(3,6-Difluoro-9H-carbazol-9-yl)-2-hydroxy-2-methylpropyl)-5,5-dimethylisothiazolidine-1,1-dioxide], with 1650 nM.

`O=S1(=O)C(F)CCN1CC(O)Cn1c2ccc(F)cc2c2cc(F)ccc21` (stereo not drawn) [Compound 183, 2-(3-(3,6-Difluoro-9H-carbazol-9-yl)-2-hydroxypropyl)-5-fluoroisothiazolidine-1,1-dioxide] yielded an EC50 of 53 nM.

`CS(=O)(=O)N(CC(O)Cn1c2ccccc2c2ccccc21)c1ccc2ccccc2c1` (stereo not drawn) [Compound 48, N-(3-(9H-Carbazol-9-yl)-2-hydroxypropyl)-N-(naphthalen-2-yl)methanesulfonamide] returned a 50% effective concentration (EC50) of 1500 nM.

Staying with this assay, now noted: stable U2OS reporter cells harboring Per2-dLuc; luminescence monitored over 4-5 days at 35° C.
Take `CC1CCCC1N(CC(O)Cn1c2ccc(F)cc2c2cc(F)ccc21)S(C)(=O)=O` (single isomer, unassigned) [Compound 193B, N-(3-(3,6-Difluoro-9H-carbazol-9-yl)-2-hydroxypropyl)-N-(2-methylcyclopentyl)methanesulfonamide]: the EC50 is 654 nM.
